Laboratory results from a melting point compilation (Tetko et al.; mined from patent text by program, amines drawn as free bases though some values may be those of a salt).

SMILES	melting point [°C]
Cc1ccccc1C(=O)Nc1ccc(C(=O)N2Cc3cccn3Cc3ccccc32)cc1Cl	176 to 178
CCOC(=O)c1cc(CC)sc1Nc1ccc(Cl)cc1N	119 to 121
CCCCCCCCCCCCCCCCCCSC(=O)Nc1ccc(NC(=O)NS(=O)(=O)c2ccc3ccccc3c2)cc1	193
COC(=O)CCc1ncc(O)c(C(=O)OC)c1C(=O)OC	66 to 67
COC(=O)[C@H]1Cc2c([nH]c3ccccc23)[C@@H](c2ccc3occc3c2)N1C(=O)[C@H](C)NC(=O)OCc1ccccc1	91 to 92
CCOC(=O)C(NC(=O)CNC(=O)CC)C(=O)OCC	120 to 122
CCCCc1ncc(C=C2C(=O)Nc3ccccc32)n1Cc1ccc(C(=O)O)cc1	237 to 238
O=[N+]([O-])c1ccc2nc3c(nc2c1)OCC1CCCCN31 (stereo not given)	151 to 154
CN(C)Cc1ccc(CSCCNC2=NS(=O)(=O)C(S(C)(=O)=O)=C2N)o1	187 to 189
CC12CCC(=O)C=C1NCC1C2CCC2(C)C(C(=S)c3ccccn3)CCC12 (stereo not given)	190 to 202
COCCOc1ccc(C=O)c(O)c1	64.5 to 65.5
NC(=O)C(Nc1ccc(Cl)cc1)c1c(Cl)ccc(N)c1Cl (stereo not given)	232
CC1(C)CCc2c(-c3ccoc3)nc3sc4c(NCc5cccnc5)ncnc4c3c2C1	247 to 248
O=[N+]([O-])c1cc(Cc2cc(Cl)ccc2O)c(O)c(Cc2cc(Cl)ccc2O)c1	220
Cc1nc2c(N)nc3ccccc3c2n1CCOCCS(C)(=O)=O	214 to 217
O=C(NC(Cc1c[nH]c2ccccc12)C(=O)O)c1ccccc1Cl (racemic)	56 to 70
CCCSc1sc(C(N)=O)c2c1-c1nn(S(C)(=O)=O)cc1CC2	191 to 192
CCSC1=C(NC(=O)CN2CCN(CCSc3nc4c(C)c(Cl)cc(C(C)C)c4o3)CC2)C=CC(C)(SCC)N1 (stereo not given)	120 to 122
CCOc1ccc(CC(C)=O)cc1S(N)(=O)=O	158 to 159
Cc1ccc(C(=O)OC(C)(C)C)cc1C=O	53 to 55

SMILES	melting point [°C]
Fc1ccc2[nH]c3c4ccccc4nc-3c(Cl)c2c1	208 to 210
Nc1nc2c(ncn2Cc2cccnc2)c(=O)[nH]1	> 300
Cc1cc2cn[nH]c(=O)c2n1CC(C)C	188 to 191
ONCc1ccccc1	56 to 57
C#CCn1c(C)c(C(=O)OCC)sc1=O	65
c1ccc(CN2CC3OC(c4ccccc4)(C2)c2ccccc23)cc1 (stereo not given)	100 to 101
Cc1ccc(-c2nc(C(N)=O)cs2)cc1	100 to 102
CNC(=S)SCCC(=O)N1CCC[C@H]1C(=O)O	127 to 129
C#CCOc1ccc(Br)cn1	58 to 60
CN(C)C1CCc2[nH]c3cc(F)ccc3c2C1 (stereo not given)	174 to 176
CCOCc1nc2c(N)nc3ccccc3c2n1N(C)C	213 to 215
CCOC(=O)Cn1c(-c2cc3c(cc2[N+](=O)[O-])OCO3)nc2ccccc21	136 to 138
O=C1COCc2ccccc2N1	160 to 165
Cc1ccc(N(c2ccc(-c3ccc(N(c4ccccc4)c4cccc(C)c4)cc3)cc2)c2ccc3ccc4cccc5ccc2c3c45)cc1	172 to 173
CC(=O)C(C)Oc1cc(N)c(Cl)cc1C(=O)NCCN(C)C (stereo not given)	124 to 125
C=CCCc1ccc(C=NN=Cc2ccc(C)cc2)cc1	82
Cc1ccc(C(=O)c2cc(C(C)(C)C)c(O)c(C(C)(C)C)c2)c(Cl)n1	116 to 117
Nc1c(C(=O)c2ccc(Cl)cc2)oc2ccccc12	202 to 204
Nc1ncc(-c2noc(-c3cnn4c(C(F)(F)F)cc(-c5ccc(Cl)cc5)nc34)n2)cn1	268
c1ccc2c(c1)CNc1ccccc1N2	114 to 116

SMILES	melting point [°C]
COC(=O)c1nc(Br)cc(N=[N+]=[N-])c1Cl	84 to 86
Nc1ccc(C(=O)Nc2ccc(Cl)nc2)cc1F	193
CC(O)C1CCC(CNC(=O)OC(C)(C)C)CC1 (stereo not given)	75 to 76
CCCCCCCC(=O)NCCCCCCO	77 to 78
Cc1cn(-c2cccc(N)c2)cn1	117 to 119
Cc1cccc2c1-n1nnnc1SC2	174
Nc1ccc(CS(=O)(=O)NCc2ccccc2)cc1	117 to 118
CNC(=O)NC(=O)N(C)c1ccccc1	123 to 125
CCOC(=O)C(=O)Nc1ccc(C#N)c(C#N)c1	194
Cc1ccc(N2CN(CCN(C)C)CN(C)C2=S)c(C)c1	65 to 70
Cc1cc(NCCO)c2[nH]nc(-c3ccc(Cl)cc3)c2n1	222 to 224
O=[N+]([O-])c1cnc2ccc(O)cc2c1-c1ccccc1	282 to 284
CCOC(=O)c1ccc(-c2ccc(-c3ccc(C(F)(F)F)cc3)n2C)cc1	150 to 151
CC(C)(C)OC(=O)N[C@H](Cc1ccc(Cl)c(Cl)c1)C(=O)N1CCC[C@H]1C(=O)NCC1CCc2n[nH]cc2C1 (stereo not given in full)	100 to 103
O=c1[nH]cccc1-c1cccn2nc(Nc3ccc4ncccc4c3)nc12	> 250
CC(=O)Oc1c(C)c2c(c(C)c1OC(C)=O)SC(C)O2 (stereo not given)	82 to 84
O=C(O)CCCSC(=S)NCCCc1ccc(Cl)cc1	98 to 100
CC1CCc2c(N3CCC(NC(=O)OC(C)(C)C)C3)c(F)cc3c(=O)n(N)c(=O)n1c23 (stereo not given)	98 to 100
CCOC(=O)C(N)c1ccc(C(C)=O)cc1 (stereo not given)	77 to 78
CC(C)(C)OC(=O)[C@H](NS(=O)(=O)c1ccc2c(Cl)cnc(Cl)c2c1)C(C)(C)C	140 to 142

Continued, values first:

melting point [°C]	SMILES
121	Cc1[nH]c2ccc(Cl)cc2c1C(C(=O)C1(Cl)C=CC=CC1)c1cc(=O)n(C2CCCCC2)[nH]1 (stereo not given)
159 to 161	CCCCCc1c(-c2ccc3c(Br)c(OCC(=O)O)ccc3c2)oc2ccccc12
53.5 to 54.5	CSc1cc2ccccc2cc1C=O
314 to 316	Cc1ccc(-c2nc3c([nH]c(=O)c4ccccc43)s2)cc1
60 to 63	COC(=O)c1ccc(COc2cccc(-c3c(C(=O)c4ccccc4)cnc4c(C(F)(F)F)cccc34)c2)c(OC)c1
212 to 214	Cc1cc(=O)[nH]c2cc(OCCCN3CCN(c4cccc(Cl)c4)CC3)ccc12
96	CCOC(=O)C(C)OCc1cc2nc(C(F)(F)F)ccc2n1S(=O)(=O)c1ccc2ncsc2c1 (stereo not given)
219 to 221	CC(C)c1nc2cc(COc3ccc(C=C4SC(=O)NC4=O)cc3)ccc2o1
151 to 153	CC(C)c1ccc2c(c1)c(Sc1ccccc1)c(CC(=O)O)n2Cc1ccc(Cl)cc1
246 to 248	CC(=NNc1ccc(C2=NNC(=O)CC2C)cc1)c1ccncc1 (stereo not given)
107 to 109	Cc1c(CNC2CCCC2)[nH]c2c(C)c(NC(=O)c3ccc(OC[C@@H]4CCCO4)cc3)ccc12
145	O=C1CCc2cc(Oc3ccc(F)cc3F)c([N+](=O)[O-])cc21
116 to 118	COc1ccc2c(c1)CCC(c1ccc(OC)cc1OC)C2=O (stereo not given)
252	O=C1Nc2ccc(I)cc2C1=NNC(=O)c1ccc(Oc2ccc(CN3CCOCC3)cc2)cc1
142 to 145	CCC(=O)N1C(=O)c2cc(C)ccc2Oc2ncccc21
122 to 125	CC(=O)OC1CSC(Oc2cncc(-c3ccnc(F)c3)c2)C(OC(C)=O)C1OC(C)=O (stereo not given)
86 to 87	O=S(=O)(Nc1ccc(Cl)cc1C(=NOc1ccc(Cl)cc1)c1ccccc1)C(F)(F)F
58 to 60	CCOC(=O)c1oc2ccc(Cl)cc2c1CN(C)CC(OC)OC
237 to 239	Cc1sc2c(Sc3ccccc3)c3ccccc3c(-c3cc(Br)c(O[C@H](C)C(=O)O)c(Br)c3)c2c1C
158 to 160	COC(=O)c1ccc(Cc2cn(C/C=C/c3ccc4ccc(Cl)cc4n3)c3ccc([N+](=O)[O-])cc23)c(OC)c1

melting point [°C]	SMILES
118 to 120	O=C(O)COc1cccc(CCc2nc(-c3ccccc3)c(-c3ccccc3)s2)c1
171 to 172	COc1cc2c(cc1OC)CCC(C(=O)N1CCN(C(=O)c3cc(OC)c(OC)cc3OC)CC1)=C2
165 to 166	COc1ccc(C(=O)Nc2cc(C(=O)NCc3ccccc3)ccn2)cc1
115 to 118	COc1cc(CNC(c2ccccc2)c2ccccc2)ccc1O
49 to 50	COc1cccc2c1oc1ccccc12
192	CC(C)CC1Cc2cc(OCC(=O)O)c(Cl)c(Cl)c2C1=O (stereo not given)
183 to 185	CC(C)c1cccc(C(C)C)c1NC(=O)NCC1CCc2ccccc21 (stereo not given)
218 to 220	COc1ccc(Nc2nc(NC3CCCCCC3)nc(Oc3ccc(C=O)cc3)n2)cc1Cl
259	CC(C)n1cc(-c2nc(C(N)=O)c(N)nc2-c2cccc(F)c2)ccc1=O
174 to 175	O=C1c2ccc(Br)cc2C(=O)N1c1ccc(Cl)cc1C(F)(F)F
266 to 268	Cc1nc2c(O)cccc2c(=O)n1C1CCC(=O)NC1=O (stereo not given)
154 to 155	COC(=O)[C@H]1Cc2c([nH]c3ccccc23)[C@@H](c2ccc3c(c2)OCO3)N1
243 to 244	COc1cc2nc(N3CCc4ccc(NC(C)=O)cc4C3)nc(N)c2cc1OC
169 to 170	CC(=O)c1cc(NS(C)(=O)=O)c(Sc2ccc(F)cc2F)cc1[N+](=O)[O-]
255 to 256	COc1cc(OC)c2c(=O)[nH]c(-c3cc(C)c(OCCO)c(C)c3)nc2n1
160 to 161	CC1=C(C(=O)OC(C)C)C(c2cccc([N+](=O)[O-])c2)N(C(N)=O)C(=O)N1 (stereo not given)
156 to 157	CCOc1nn(Cc2ccc(OCc3nc(-c4cccs4)oc3C)cc2)cc1CCC(=O)O
194 to 195	COc1ccc2c(c1)CCc1c-2n(-c2ccc(O[Si](C)(C)C(C)(C)C)cc2)c(=O)c2cc(OC)ccc12
146 to 149	COc1cccc([C@H]2O[C@H](CC(=O)Nc3cc(C(=O)O)ccc3F)C(=O)N(CC(C)(C)COC(C)=O)c3ccc(Cl)cc32)c1OC
173 to 174	O=C1CCCc2cc(CCN3CCN(c4nsc5ccccc45)CC3)ccc2N1
